Laboratory results: patent US7622498B2, “Sugar derivatives comprising oxiranes or α, β-unsaturated δ-lactones, process for their preparation and their utilisation as pesticides” (Instituto Politecnico de Santarem/Escoal Superior Agraria, priority 2004, dated 2009)
Values after ≈ are worked out from the molar mass of the structure shown. “Also recorded” adds a separate entry of the source.

Assays:
[1] = test system: brine shrimp A. salina larvae; assay: Method F: immersion bioassay of brine shrimp larvae in brine; type: in vivo; conditions: brine shrimp larvae immersed in brine, 24 hour mortalities
Experimental: (§1) Immersion Bioassay of Brine Shrimp A. salina Larvae in Brine
(§2) Freshly hatched brine shrimps were prepared by adding aquarium brine shrimp eggs to salt water (15 g sea salt per litre water). The following day hatchlings were separated from eggs and empty egg cases, using their phototropic movement and a Pasteur pipette.
(§3) Into each of a set of small glass vials was pipetted 195 μL of brine containing 5 shrimp larvae, using a micropipette. The solution of the test compound in 5 μL acetone was added, the vial closed and kept at 30±1° C. for observation.
(§4) Dead and alive shrimps were counted, at 1 and 24 hours after treatment, using a microscope. Six concentrations and a control were used with 10 shrimps treated.
(§5) A blank test was performed for comparison of the results.
(§6) Dosages used in insect treatments were based upon the amount of compound applied to each insect. For the shrimps the final concentrations of the compounds in the immersion brine were used.
(§7) The 24 hour mortalities were used to calculate the LD50/LC50 using regression analysis of the probability percent mortality (probit) against log dose/concentration.^30 This was calculated using PoloPC software (LeOra Software, Berkeley, Calif., 1994).

fruit fly larvae = assay: Method D: topical treatment of fruit fly larvae; type: in vivo, Drosophila melanogaster; conditions: for toxicity to fruit fly larvae compared with adult flies (in words): topical treatment of larvae, from LD50 values; for LD50: Method D, topical 0.2 μL acetone solution, second and third instar fruit fly larvae
Experimental: Topical Treatment of Fruit Fly Larvae
Fruit fly larvae were separated from the growing medium and second and third instars were topically treated with 0.2 μL acetone solutions of the compounds using a PAX microapplicator.
Larvae were held in padded forceps for dosing and then placed on moistened filter paper, at 30±1° C., for observation.
as §6, §7

[2] = test system: adult fruit fly (D. melanogaster); assay: Method A: topical treatment of adult fruit fly; type: in vivo, Drosophila melanogaster; conditions: for LD50: Method A, topical 0.2 μL acetone solution, adult fruit flies, 24 hour mortalities, probit regression; for activity against adult fruit flies (in words): topical treatment, from LD50 values
Experimental: Topical Treatment of Adult Fruit Fly (D. melanogaster)
A culture of fruit flies (D. melanogaster) was used in the production of adult flies (approx 0.22 mg) of about seven days.
Serial dilutions of the compounds were prepared in acetone, and volumes of approximately 0.2 μL were applied to the ventral surface of each insect, using a calibrated PAX 100 microapplicator and a 1 mL syringe.
The fruit flies, in groups of 5, were anaesthetised using carbon dioxide. Prior to recovery the flies were placed in a containing vial and kept at 30±1° C., for observations of mortality at 1, 2, 3 and 24 hours after treatment.
For this purpose solutions of 6 different concentrations and a control were employed in groups of 12 and 20 insects. Control mortalities were normally zero but occasionally rose to 5-10%.
as §6, §7
In the table are also given the confidence intervals at 95% for the LD50 values, the number of organisms tested, the slope obtained by linear regression and the index g (of significance). Data are considered satisfactory if g is substantially less than 1 and seldom greater than 0.4.^31
As regards the confidence intervals for LD50, the indication (90%) means that the intervals were calculated at 90% and not at 95%.

[3] = test system: house fly adults (M. domestica); assay: Method E: topical treatment of house fly adults; type: in vivo, Musca domestica; conditions: topical 1 μL acetone solution, adult house flies, strain Cooper
Experimental: Topical Treatment of House Fly Adults (M. domestica)
A culture of an insecticide-susceptible strain, Cooper, was established. Three-day-old adult house flies (body weight about […]) were anaesthetised with carbon dioxide. Using the PAX microapplicator, a volume of 1 μL of acetone solution of the test compounds was applied to the dorsal cuticle, holding the fly in padded forceps.
Groups of flies were placed into closed vials, kept at 30±1° C., for observation.
as §6, §7

[4] = test system: glasshouse white fly (T. vaporariorum); assay: Method G: foliar treatment of glasshouse white fly on tomato leaves; type: in vivo, Trialeurodes vaporariorum; conditions: for % Control of White Fly: sprayed on infested tomato leaves, 14 hours; for insecticidal efficacy against adult white fly (in words): spraying infested tomato leaves
Experimental: Method G Foliar Treatment of Glasshouse White Fly (T. vaporariorum) Seedlings of tomato plants were infested with adult white fly. Selected leaves of the tomato plants were excised and carefully trimmed to 3 leaflets without disturbing the infestation. These were placed in glass tubes containing water and the leaflets were then sprayed on both sides with a small sprayer delivering for each one 200 μL of a solution of the test compound dissolved in 30% acetone in water. Controls were sprayed with the solvent alone. Counts of insects on the individual leaflets were made immediately after spraying and then at 14 hours following. Where single dose treatments were used (in the case of whitefly assays), no statistics are available and the results are expressed as percent effect. Five compounds were tested, which were applied spraying 600 μL of each compound solution (prepared according to method G) on of leaves of tomato plants infested with a known number of adult whitefly. After 14 hours, the number of dead insects (or eventually of insects that disappeared) was counted. These assays were performed at room temperature, between 20 and 25° C.

[5] = Method F: immersion bioassay of brine shrimp larvae in brine; type: in vivo; conditions: Artemia salina (brine shrimp) larvae, in vivo, brine shrimp larvae immersed in brine, 24 hour mortalities
Experimental: as §1, §2, §3, §4, §5, §6, §7

adult fruit flies = assay: Method B: second method for topical treatment of adult fruit flies; type: in vivo, Drosophila melanogaster; conditions: topical 1 μL acetone solution, 24 hour mortalities
Experimental: Second Method for Topical Treatment of Adult Fruit Flies
Different dilutions of the compounds in acetone were prepared and applied to individual fruit flies using a Gilson piston micropipette.
Individual flies were held in padded forceps and 1 μL of acetone solution was applied. The acetone was allowed to evaporate before placing the fly into the vial for observation, kept at 30±1° C., following the standard methodology.
as §6, §7

Row | Molecule | LC50 [1] [µg/mL] | LD50 [2] | activity against adult fruit flies (in words) [2] | other results
1 | CC1(C)OC2OC(C3CC(C)([Se]c4ccccc4)C(=O)O3)C(OCc3ccccc3)C2O1 [Compound 8, (7R)-/(7S)-3-O-Benzyl-6,7-dideoxy-1,2-O-isopropylidene-7-methyl-7-phenylselenyl-α-D-gluco-octofuranurono-8,5-lactone] | 220.41 (≈ 438 µM) | 0.00037 μg/insect |  | toxicity to fruit fly larvae compared with adult flies (in words) (fruit fly larvae): less toxic for larvae than for adult flies; LD50 [3]: 0.644 μg/insect
2 | CC1(C)O[C@H]2O[C@H]([C@H]3C=CC(=O)O3)[C@H](OCc3ccccc3)[C@H]2O1 [Compound 4, 3-O-benzyl-6,7-dideoxy-1,2-O-isopropylidene-α-D-gluco-oct-6-enefuranurono-8,5-lactone] | 358.92 (≈ 1080 µM) | 0.00012 μg/insect | high toxicity against adult fruit flies | % Control of White Fly ([4]; concentration 2.5 μg/mL): 50%; insecticidal efficacy against adult white fly (in words) [4]: show efficacy as insecticides; also recorded: promising for activity against the white fly
3 | CC1=C[C@H]([C@H]2O[C@@H]3OC(C)(C)O[C@@H]3[C@H]2OCc2ccccc2)OC1=O [Compound 1, 3-O-benzyl-6,7-dideoxy-1,2-O-isopropylidene-7-methyl-α-D-gluco-oct-6-enefuranurono-8,5-lactone] | 100.62 (≈ 290 µM) | 0.00002 μg/insect | extremely active | 
4 | CO[C@H]1O[C@H]([C@@H]2CO2)[C@@H]2O[C@H]12 [Compound 9, Methyl 2,3:5,6-Dianhydro-β-L-gulofuranoside] | 671.50 (≈ 4250 µM) | 0.00003 μg/insect | extremely active; also recorded: high toxicity against adult fruit flies | % Control of White Fly ([4]; concentration 2.5 μg/mL): 85%; insecticidal efficacy against adult white fly (in words) [4]: show efficacy as insecticides; also recorded: promising for activity against the white fly
5 | CC(=O)OC[C@H]1OC(=O)C(Br)=C[C@@H]1OC(C)=O [Compound 5, 4,6-di-O-acetyl-2-bromo-2,3-dideoxy-D-erythro-hex-2-enone-1,5-lactone] | 38.36 (≈ 125 µM) | 0.00016 μg/insect |  | LD50 (fruit fly larvae): 4.75 μg/insect; toxicity to fruit fly larvae compared with adult flies (in words) (fruit fly larvae): less toxic for larvae than for adult flies; LD50 [3]: 1.065 μg/insect
6 | methyl (7R)-/(7S)-2,3-anhydro-6,7-dideoxy-7-methyl-7-phenylselenyl-α-gulo-octofuranurono-8,5-lactone [Compound 6] | 125.48 | 0.00015 μg/insect |  | % Control of White Fly ([4]; concentration 1.3 μg/mL): 0%
7 | O=[N+]([O-])NC1=NCCN1Cc1ccc(Cl)nc1 [Imidacloprid, imidacloprid, reference compound] |  | 0.01253 μg/insect |  | LC50 at 24 h [5]: 0.0312 µg/mL (≈ 0.122 µM)
8 | CC1=C[C@H]([C@H]2O[C@@H]3OC(C)(C)O[C@@H]3[C@@H]2OCc2ccccc2)OC1=O [Compound 2, 3-O-benzyl-6,7-dideoxy-1,2-O-isopropylidene-7-methyl-α-D-alo-oct-6-enefuranurono-8,5-lactone] | 64.30 (≈ 186 µM) | 2.27 × 10^−6 μg/insect | extremely active | LD50 (adult fruit flies): 0.00398 μg/insect
9 | (7R)-/(7S)-3,6,7-Trideoxy-1,2-O-isopropylidene-7-methyl-7-phenylselenyl-α-D-ribo-octofuranurono-8,5-lactone [Compound 7] | 261.04 | 0.0002 μg/insect |  | LD50 (fruit fly larvae): 0.968 μg/insect; % Control of White Fly ([4]; concentration 4.8 μg/mL): 0%
10 | CC1(C)O[C@H]2O[C@H]([C@H]3C=CC(=O)O3)[C@@H](OCc3ccccc3)[C@H]2O1 [Compound 3, 3-O-benzyl-6,7-dideoxy-1,2-O-isopropylidene-α-D-alo-oct-6-enefuranurono-8,5-lactone] | 144.71 (≈ 435 µM) | 5.02 × 10^−6 μg/insect | extremely active | % Control of White Fly ([4]; concentration 1.3 μg/mL): 0%
